This is an account of results in patent publication US11987575B2, “Tricyclic compounds as BCR-ABL inhibitors” (ASCENTAGE PHARMA (SUZHOU) CO., LTD., priority 2019, dated 2024).

The target of one assay is BaF3(WT) (Homo sapiens, UniProt P00519). In words: WST (CCK-8) anti-proliferative assay, BaF3 WT. To be noted: read-out: BaF3(WT); BaF3 WT cells, 72 h treatment, CCK-8 readout OD 450 nm.
In a further assay the target is BaF3 (T315I mutant) (Homo sapiens, UniProt P00519, T315I, cells depend on it). Kind of assay: WST (CCK-8) anti-proliferative assay, BaF3 T315I mutant. To be noted: read-out: BaF3 (T315I mutant), 72 h treatment, CCK-8 readout OD 450 nm.

Procedure for BaF3 (T315I mutant): (§1) The anti-proliferative effect of representative compounds of the present disclosure was determined by a water-soluble tetrazolium (WST)-based assay using Cell Counting Kit-8 (CCK-8). Cells were seeded in 96-well plates and treated with different concentrations of test articles for 72 h. Each treatment was tested in triplicate. Briefly, a series of 9 concentrations were chosen for each test article and added at 100 μl/well into a 96-well plate. Each concentration was tested in triplicate. 100 μl of diluent was added into 3-6 wells in the same plate for cell control group, and another set of 3-6 wells was used as a blank control.
(§2) In each well, 100 μl of cell suspension (containing optimal cell numbers, which creates approximately 100% confluence of cells in control wells based on by the absorbance (OD) value) was dispensed into the same 96-well plate except for the blank well. The plate was then cultured at 37° C. in an incubator in an atmosphere with 5% CO2 for 72 h. At the end of the treatments, 20 μl/well of CCK-8 reagent was directly added to each well. The plate was then incubated at 37° C. in an incubator in an atmosphere with 5% CO2 for 2-4 hours.
(§3) The cells viability was calculated using the mean OD value of triplicated wells following the equation below: (OD sample−OD blank)/(OD cell control−OD blank)×100 IC50 values were calculated with Graphpad Prism 6.0 software using nonlinear regression (curve fitting) type data analysis.
Procedure for BaF3(WT): as §1, §2, §3

With `CC(=O)N[C@@H]1CC[C@H]2c3cc(C(=O)Nc4ccc(OC(F)(F)Cl)cc4)cc(-c4cnccn4)c3N(CC(C)(C)C)[C@@H]12` [Compound 58-A], the GI50 is 18 nM on BaF3(WT) and 80 nM on BaF3 (T315I mutant).

As for `CC(=O)N(C)C1CCC2c3cc(C(=O)Nc4ccc(OC(F)(F)Cl)cc4)cc(-c4ccn[nH]4)c3N(C(C)C)C21` (stereo not shown) [Compound 44, N-(4-(chlorodifluoromethoxy)phenyl)-4-isopropyl-3-(N-methylacetamido)-5-(1H-pyrazol-5-yl)-1,2,3,3a,4,8b-hexahydrocyclopenta[b]indole-7-carboxamide], the GI50 on BaF3(WT) came to 36 nM; on BaF3 (T315I mutant), 122 nM.

`CC(C)N1c2c(-c3ccn[nH]3)cc(C(=O)Nc3ccc(OC(F)(F)Cl)cc3)cc2C2CCC(Nc3cnccn3)C21` (stereo not shown) [Compound 34, N-(4-(chlorodifluoromethoxy)phenyl)-4-isopropyl-3-(pyrazin-2-ylamino)-5-(1H-pyrazol-5-yl)-1,2,3,3a,4,8b-hexahydrocyclopenta[b]indole-7-carboxamide]: the GI50 at BaF3(WT) turned out to be 17 nM; on BaF3 (T315I mutant), 411 nM.

On to `CC(C)N1c2c(-c3ccn[nH]3)cc(C(=O)Nc3ccc(OC(F)(F)Cl)cc3)cc2C2CCC(NC(=O)Nc3cnccn3)C21` (stereo not shown) [Compound 33, N-(4-(chlorodifluoromethoxy)phenyl)-4-isopropyl-3-(3-(pyrazin-2-yl)ureido)-5-(1H-pyrazol-5-yl)-1,2,3,3a,4,8b-hexahydrocyclopenta[b]indole-7-carboxamide], for which the GI50 at BaF3(WT) turned out to be 14 nM; at BaF3 (T315I mutant), 109 nM.

On to `CC(C)N1c2c(-c3ccn[nH]3)cc(C(=O)Nc3ccc(OC(F)(F)Cl)cc3)cc2C2CCC(NS(=O)(=O)N3CCOCC3)C21` (stereo not shown) [Compound 13], for which the results for the GI50 at BaF3(WT) and at BaF3 (T315I mutant) were 12 nM and 122 nM, respectively.

`COCCS(=O)(=O)NC1CCC2c3cc(C(=O)Nc4ccc(OC(F)(F)Cl)cc4)cc(-c4ccn[nH]4)c3N(C(C)C)C12` (stereo not shown) [Compound 18]: the GI50 at BaF3(WT) stood at 13 nM; at BaF3 (T315I mutant), 126 nM.

Regarding `CC(=O)N[C@@H]1CC[C@H]2c3cc(C(=O)Nc4ccc(OC(F)(F)Cl)cc4)cc(-c4ccncn4)c3N(CC(C)(C)C)[C@@H]12` [Compound 57-A], the GI50 came out at 97 nM on BaF3(WT) and 316 nM on BaF3 (T315I mutant).

As for `CC(C)N1c2c(-c3ccn[nH]3)cc(C(=O)Nc3ccc(OC(F)(F)Cl)cc3)cc2C2CCC(NC(=O)C3CCN(C)CC3)C21` (stereo not shown) [Compound 32], the GI50 amounted to 491 nM on BaF3(WT) and 2110 nM at BaF3 (T315I mutant).

Consider `COCC(=O)NC1CCC2c3cc(C(=O)Nc4ccc(OC(F)(F)Cl)cc4)cc(-c4ccn[nH]4)c3N(C(C)C)C12` (stereo not shown) [Compound 9], for which the GI50 at BaF3(WT) came out at 17 nM; at BaF3 (T315I mutant) it was 206 nM.

With `CC(=O)NC1CCC2c3cc(C(=O)Nc4ccc(OC(F)(F)Cl)cc4)cc(-c4cncc(F)c4)c3N(C3CCCC3)C12` (stereo not shown) [Compound 64], the GI50 turned out to be 8 nM at BaF3(WT) and 43 nM at BaF3 (T315I mutant).

In the case of `CC(=O)N[C@@H]1CC[C@H]2c3cc(C(=O)Nc4ccc(OC(F)(F)Cl)cc4)cc(-c4ccccn4)c3N(CC(C)(C)C)[C@@H]12` [Compound 56-A], the GI50 on BaF3(WT) came to 56 nM; on BaF3 (T315I mutant) it was 440 nM.

In the case of `CC(=O)N[C@H]1CC[C@@H]2c3cc(C(=O)Nc4ccc(OC(F)(F)Cl)cc4)cc(-c4ccn[nH]4)c3N(C(C)C)[C@H]12` [Compound 4-B, (3S,3aS,8bR)-3-acetamido-N-(4-(chlorodifluoromethoxy)phenyl)-4-isopropyl-5-(1H-pyrazol-5-yl)-1,2,3,3a,4,8b-hexahydrocyclopenta[b]indole-7-carboxamide], the GI50 was 535 nM at BaF3(WT) and 1270 nM at BaF3 (T315I mutant).

Regarding `CC(=O)NC1CCC2c3cc(C(=O)Nc4ccc(OC(F)(F)Cl)cc4)cc(-c4ccn[nH]4)c3N(CC(C)(C)C)C12` (stereo not shown) [Compound 22], the GI50 at BaF3(WT) was found to be 3 nM; on BaF3 (T315I mutant) it was 21 nM.

For the molecule `CC(=O)N[C@@H]1CC[C@H]2c3cc(C(=O)Nc4ccc(OC(F)(F)Cl)cc4)cc(-c4ccc(C#N)nc4)c3N(C(C)C)[C@@H]12` [Compound 47-A], the results for the GI50 on BaF3(WT) and on BaF3 (T315I mutant) were 5 nM and 13 nM, respectively.

`CC(=O)N[C@@H]1CC[C@H]2c3cc(C(=O)Nc4ccc(OC(F)(F)Cl)cc4)cc(-c4cncc(C#N)c4)c3N(C(C)C)[C@@H]12` [Compound 53-A]: the GI50 on BaF3(WT) was found to be 3 nM; on BaF3 (T315I mutant) it was 16 nM.

With `CC(=O)NC1CCC2c3cc(C(=O)Nc4ccc(OC(F)(F)Cl)cc4)cc(-c4ccncc4)c3N(C(C)C)C12` (stereo not shown) [Compound 21], the GI50 on BaF3(WT) was 27 nM; at BaF3 (T315I mutant), 176 nM.

As to `CC(C)N1c2c(-c3ccn[nH]3)cc(C(=O)Nc3ccc(OC(F)(F)Cl)cc3)cc2C2CCC(N3CCCCC3=O)C21` (stereo not shown) [Compound 36, N-(4-(chlorodifluoromethoxy)phenyl)-4-isopropyl-3-(2-oxopiperidin-1-yl)-5-(1H-pyrazol-5-yl)-1,2,3,3a,4,8b-hexahydrocyclopenta[b]indole-7-carboxamide], the GI50 turned out to be 9 nM on BaF3(WT) and 84 nM at BaF3 (T315I mutant).

With `CC(C)N1c2c(-c3ccn[nH]3)cc(C(=O)Nc3ccc(OC(F)(F)Cl)cc3)cc2C2CCC(NC(=O)C3CCOCC3)C21` (stereo not shown) [Compound 31], the GI50 at BaF3(WT) came to 15 nM; on BaF3 (T315I mutant), 40 nM.

On to `CC(C)N1c2c(-c3ccn[nH]3)cc(C(=O)Nc3ccc(OC(F)(F)Cl)cc3)cc2C2CCC(NS(C)(=O)=O)C21` (stereo not shown) [Compound 6], for which the GI50 came to 67 nM on BaF3(WT) and 154 nM on BaF3 (T315I mutant).

Take `CC(C)NS(=O)(=O)NC1CCC2c3cc(C(=O)Nc4ccc(OC(F)(F)Cl)cc4)cc(-c4ccn[nH]4)c3N(C(C)C)C12` (stereo not shown) [Compound 19]: the GI50 at BaF3(WT) was determined as 6 nM; at BaF3 (T315I mutant), 97 nM.

On to `CC(C)N1c2c(-c3ccn[nH]3)cc(C(=O)Nc3ccc(OC(F)(F)Cl)cc3)cc2C2CCC(N3CCCS3(=O)=O)C21` (stereo not shown) [Compound 37, N-(4-(chlorodifluoromethoxy)phenyl)-3-(1,1-dioxidoisothiazolidin-2-yl)-4-isopropyl-5-(1H-pyrazol-5-yl)-1,2,3,3a,4,8b-hexahydrocyclopenta[b]indole-7-carboxamide], for which the GI50 at BaF3(WT) was 25 nM; on BaF3 (T315I mutant) it was 245 nM.

As to `CCC(CC)N1c2c(-c3cncc(F)c3)cc(C(=O)Nc3ccc(OC(F)(F)Cl)cc3)cc2C2CCC(NC(C)=O)C21` (stereo not shown) [Compound 65], the values for the GI50 at BaF3(WT) and at BaF3 (T315I mutant) were 9 nM and 119 nM, respectively.

In the case of `CC(=O)N[C@@H]1CC[C@H]2c3cc(C(=O)Nc4ccc(OC(F)(F)Cl)cc4)cc(-c4ccc(C)nc4)c3N(CC(C)(C)C)[C@@H]12` [Compound 60-A], the GI50 on BaF3(WT) is 13 nM; at BaF3 (T315I mutant), 92 nM.

Turning to `CC(=O)NC1CCC2c3cc(C(=O)Nc4ccc(OC(F)(F)Cl)cc4)cc(-c4cc[nH]n4)c3N(CC(F)(F)F)C12` (stereo not shown) [Compound 49], the figures for the GI50 at BaF3(WT) and at BaF3 (T315I mutant) were 72 nM and 125 nM, respectively.

Turning to `CC(=O)N[C@@H]1CC[C@H]2c3cc(C(=O)Nc4ccc(OC(F)(F)Cl)cc4)cc(-c4cccnc4)c3N(C(C)C)[C@@H]12` [Compound 26-A, (3R,3aR,8bS)-3-acetamido-N-(4-(chlorodifluoromethoxy)phenyl)-4-isopropyl-5-(pyridin-3-yl)-1,2,3,3a,4,8b-hexahydrocyclopenta[b]indole-7-carboxamide], the results for the GI50 on BaF3(WT) and on BaF3 (T315I mutant) were 6 nM and 41 nM, respectively.

In the case of `CC(=O)N[C@H]1CC[C@@H]2c3cc(C(=O)Nc4ccc(OC(F)(F)Cl)cc4)cc(-c4cccnc4)c3N(C(C)C)[C@H]12` [Compound 26-B, (3S,3aS,8bR)-3-acetamido-N-(4-(chlorodifluoromethoxy)phenyl)-4-isopropyl-5-(pyridin-3-yl)-1,2,3,3a,4,8b-hexahydrocyclopenta[b]indole-7-carboxamide], the results for the GI50 at BaF3(WT) and at BaF3 (T315I mutant) were 186 nM and 956 nM, respectively.

With `CC(C)N1c2c(-c3ccn[nH]3)cc(C(=O)Nc3ccc(OC(F)(F)Cl)cc3)cc2C2CCC(NS(=O)(=O)N3CCN(C)CC3)C21` (stereo not shown) [Compound 15], the GI50 at BaF3(WT) amounted to 35 nM; at BaF3 (T315I mutant), 346 nM.

Take `CC(=O)N[C@@H]1CC[C@H]2c3cc(C(=O)Nc4ccc(OC(F)(F)Cl)cc4)cc(-c4cc(F)cnc4C#N)c3N(C(C)C)[C@@H]12` [Compound 67-A]: the GI50 at BaF3(WT) came to 6 nM; at BaF3 (T315I mutant), 59 nM.

Consider `CNS(=O)(=O)NC1CCC2c3cc(C(=O)Nc4ccc(OC(F)(F)Cl)cc4)cc(-c4ccn[nH]4)c3N(C(C)C)C12` (stereo not shown) [Compound 5], for which the GI50 was found to be 34 nM at BaF3(WT) and 144 nM at BaF3 (T315I mutant).

As for `CC(=O)N[C@@H]1CC[C@H]2c3cc(C(=O)Nc4ccc(OC(F)(F)Cl)cc4)cc(-c4cncc(C)c4)c3N(C(C)C)[C@@H]12` [Compound 50-A], the GI50 on BaF3(WT) came to 4 nM; on BaF3 (T315I mutant), 39 nM.

As to `CC(=O)N[C@@H]1CC[C@H]2c3cc(C(=O)Nc4ccc(OC(F)(F)Cl)cc4)cc(-c4cncnc4)c3N(C(C)C)[C@@H]12` [Compound 20-A, (3R,3aR,8bS)-3-acetamido-N-(4-(chlorodifluoromethoxy)phenyl)-4-isopropyl-5-(pyrimidin-5-yl)-1,2,3,3a,4,8b-hexahydrocyclopenta[b]indole-7-carboxamide], the values for the GI50 on BaF3(WT) and at BaF3 (T315I mutant) were 42 nM and 29 nM, respectively.

Regarding `CC(=O)N1CCC2c3cc(C(=O)Nc4ccc(OC(F)(F)Cl)cc4)cc(-c4ccn[nH]4)c3N(C(C)C)C2C1` (stereo not shown) [Compound 42, 2-acetyl-N-(4-(chlorodifluoromethoxy)phenyl)-9-isopropyl-8-(1H-pyrazol-5-yl)-2,3,4,4a,9,9a-hexahydro-1H-pyrido[3,4-b]indole-6-carboxamide], the GI50 at BaF3(WT) turned out to be 38 nM; on BaF3 (T315I mutant), 115 nM.
